Source: ChEMBL document CHEMBL3045339, “Synthesis of benzoxazoles, benzothiazoles and benzimidazoles and evaluation of their antifungal, insecticidal and herbicidal activities” (1992)
In brackets after ≈: the same amount, converted by molar mass.

Assays:
Type in all cases: functional
Persicaria hydropiper [1] = assay: Herbicidal activity against Persicaria hydropiper assessed as disease control at 1000 ppm treated in soil during 15 to 20 days relative to control
Eleusine indica [2] = assay: Herbicidal activity against Eleusine indica assessed as disease control at 1000 ppm treated in soil during 15 to 20 days relative to control
Echinochloa crus-galli [3] = assay: Herbicidal activity against Echinochloa crus-galli (barnyard grass) assessed as disease control at 1000 ppm treated in soil during 15 to 20 days relative to control
Fusarium fujikuroi = assay: Antifungal activity against Fusarium fujikuroi after 7 days; design: concentration or dose not given beside the values
Xanthomonas axonopodis = assay: Antibacterial activity against Xanthomonas axonopodis after 7 days; design: concentration or dose not given beside the values
[4] = system: Pseudoperonospora cubensis; assay: Antifungal activity against Pseudoperonospora cubensis after 7 days; design: concentration or dose not given beside the values
Botrytis cinerea = assay: Antifungal activity against Botryotinia fuckeliana after 7 days; design: concentration or dose not given beside the values
Pyricularia oryzae = assay: Antifungal activity against Magnaporthe oryzae after 7 days; design: concentration or dose not given beside the values
Oryza sativa = assay: Herbicidal activity against Oryza sativa assessed as disease control at 1000 ppm treated in paddy field during 15 to 20 days relative to control
Cyperus compressus = assay: Herbicidal activity against Cyperus compressus assessed as disease control at 1000 ppm treated in paddy field during 15 to 20 days relative to control
Echinochloa crus-galli [5] = assay: Herbicidal activity against Echinochloa crus-galli (barnyard grass) assessed as disease control at 1000 ppm treated in paddy field during 15 to 20 days relative to control
Chenopodium album [6] = assay: Herbicidal activity against Chenopodium album assessed as disease control at 1000 ppm treated in foliage during 15 to 20 days relative to control
Amaranthus viridis [7] = assay: Herbicidal activity against Amaranthus viridis assessed as disease control at 1000 ppm treated in foliage during 15 to 20 days relative to control
Persicaria hydropiper [8] = assay: Herbicidal activity against Persicaria hydropiper assessed as disease control at 1000 ppm treated in foliage during 15 to 20 days relative to control
Eleusine indica [9] = assay: Herbicidal activity against Eleusine indica assessed as disease control at 1000 ppm treated in foliage during 15 to 20 days relative to control
Echinochloa crus-galli [10] = assay: Herbicidal activity against Echinochloa crus-galli (barnyard grass) assessed as disease control at 1000 ppm treated in foliage during 15 to 20 days relative to control
Amaranthus viridis [11] = assay: Herbicidal activity against Amaranthus viridis assessed as disease control at 1000 ppm treated in soil during 15 to 20 days relative to control
Chenopodium album [12] = assay: Herbicidal activity against Chenopodium album assessed as disease control at 1000 ppm treated in soil during 15 to 20 days relative to control
Bacillus subtilis = assay: Antibacterial activity against Bacillus subtilis after 48 hr
Pseudomonas aeruginosa = assay: Antibacterial activity against Pseudomonas aeruginosa after 48 hr
Escherichia coli = assay: Antibacterial activity against Escherichia coli after 48 hr

| Compound | Activity (Persicaria hydropiper [1]) [%] | Activity (Eleusine indica [2]) [%] | Activity (Echinochloa crus-galli [3]) [%] | Activity (Fusarium fujikuroi) [%] | Activity (Xanthomonas axonopodis) [%] | Activity [4] [%] | Activity (Botrytis cinerea) [%] | Activity (Pyricularia oryzae) [%] | Activity (Oryza sativa) [%] | Activity (Cyperus compressus) [%] | Activity (Echinochloa crus-galli [5]) [%] | Activity (Chenopodium album [6]) [%] | Activity (Amaranthus viridis [7]) [%] | Activity (Persicaria hydropiper [8]) [%] | Activity (Eleusine indica [9]) [%] | Activity (Echinochloa crus-galli [10]) [%] | Activity (Amaranthus viridis [11]) [%] | Activity (Chenopodium album [12]) [%] | other results |
| --- | --- | --- | --- | --- | --- | --- | --- | --- | --- | --- | --- | --- | --- | --- | --- | --- | --- | --- | --- |
| Cc1cccc2[nH]c(-c3ccccn3)nc12 | <39 | <39 | <39 | <39 | <39 | <39 | 60 | 40 | <39 | <39 | <39 | <39 | <39 | <39 | <39 | <39 | <39 | <39 |  |
| c1ccc2oc(-c3nc4ccccc4s3)nc2c1 | <39 | <39 | <39 | <39 | <39 | <39 | <39 | <39 | <39 | <39 | <39 | <39 | <39 | <39 | <39 | <39 | <39 | <39 |  |
| c1ccc2oc(-c3ccncc3)nc2c1 | <39 | <39 | <39 | 60 | <39 | <39 | 40 | <39 | <39 | <39 | 40 | <39 | <39 | <39 | <39 | <39 | <39 | <39 |  |
| O=[N+]([O-])c1cccc2nc(-c3ccccn3)[nH]c12 | <39 | <39 | <39 | <39 | <39 | <39 | <39 | 40 | <39 | <39 | <39 | <39 | <39 | <39 | <39 | <39 | <39 | <39 |  |
| CCOc1ccc2sc(-c3ccccn3)nc2c1 | <39 | <39 | <39 | <39 | <39 | <39 | <39 | <39 | <39 | 40 | 40 | 60 | 40 | <39 | <39 | <39 | <39 | <39 |  |
| c1ccc2nc(-c3nc4ccccc4s3)ccc2c1 | <39 | <39 | <39 | <39 | <39 | <39 | <39 | <39 | <39 | <39 | <39 | <39 | <39 | <39 | <39 | <39 | <39 | <39 |  |
| c1ccc2nc(-c3nc4ccccc4o3)ccc2c1 | <39 | <39 | <39 | <39 | <39 | <39 | <39 | <39 | 40 | <39 | <39 | <39 | <39 | <39 | <39 | <39 | <39 | <39 |  |
| c1ccc(-c2nc3ccccc3[nH]2)nc1 | <39 | <39 | <39 | <39 | 60 | >80 | 60 | <39 | <39 | <39 | <39 | <39 | <39 | <39 | <39 | <39 | <39 | <39 | MIC (Bacillus subtilis): 100 µg/mL (≈ 512 µM); MIC (Pseudomonas aeruginosa): 100 µg/mL (≈ 512 µM) |
| COc1ccc2[nH]c(-c3ccncc3)nc2c1 | <39 | <39 | <39 | <39 | 60 | 40 | 60 | >80 | <39 | <39 | <39 | <39 | <39 | <39 | <39 | <39 | <39 | <39 |  |
| CCOc1ccc2sc(-c3ccncc3)nc2c1 | <39 | <39 | <39 | <39 | <39 | <39 | <39 | <39 | <39 | >80 | <39 | <39 | <39 | <39 | <39 | <39 | <39 | <39 |  |
| c1ccc2nc(-c3nc4ccccc4[nH]3)ccc2c1 |  |  |  |  |  |  |  |  |  |  |  |  |  |  |  |  |  |  | MIC (Pseudomonas aeruginosa): 100 µg/mL (≈ 408 µM) |
| COc1ccc2sc(-c3ccncc3)nc2c1 | <39 | <39 | <39 | <39 | <39 | <39 | <39 | <39 | <39 | 60 | <39 | <39 | <39 | <39 | <39 | <39 | <39 | <39 |  |
| c1ccc(-c2nc3ccccc3o2)nc1 | <39 | <39 | <39 | <39 | <39 | <39 | <39 | <39 | <39 | 40 | <39 | <39 | <39 | <39 | <39 | <39 | <39 | <39 |  |
| c1ccc2[nH]c(-c3ccncc3)nc2c1 |  |  |  |  |  |  |  |  |  |  |  |  |  |  |  |  |  |  | MIC (Pseudomonas aeruginosa): 100 µg/mL (≈ 512 µM) |
| COc1ccc2sc(-c3ccccn3)nc2c1 | <39 | <39 | <39 | <39 | <39 | <39 | <39 | <39 | 40 | 60 | <39 | <39 | 40 | <39 | <39 | <39 | <39 | <39 |  |
| Cc1ccc2nc(-c3ccccn3)[nH]c2c1 | <39 | <39 | <39 | <39 | 40 | 60 | <39 | 60 | <39 | <39 | <39 | 60 | 40 | <39 | <39 | <39 | <39 | <39 | MIC (Bacillus subtilis): 100 µg/mL (≈ 478 µM); MIC (Escherichia coli): 50 µg/mL (≈ 239 µM) |
| Clc1ccc2sc(-c3ccccn3)nc2c1 | <39 | <39 | <39 | <39 | <39 | <39 | <39 | <39 | <39 | >80 | <39 | 40 | 60 | <39 | <39 | <39 | <39 | <39 |  |
